Experimental data taken from patent US4486441A, “Pseudotropyl halogeno-benzoates and their use in migraine treatment” (Merrell Toraude Et Compagnie, priority 1982, dated 1984).
Read-outs that look alike come from different tables or passages of the source.

Legend:
5-HT M-receptor [1] = biological target: T1, 5-HT M-receptor (Oryctolagus cuniculus, UniProt A0A5F9C9J3); experiment: pA2 against 5-HT in the isolated rabbit heart
T1 construct: determining their pA2 values in the isolated rabbit heart; from tissue; host or cells: isolated rabbit heart
T1 sequence (A0A5F9C9J3 1-494): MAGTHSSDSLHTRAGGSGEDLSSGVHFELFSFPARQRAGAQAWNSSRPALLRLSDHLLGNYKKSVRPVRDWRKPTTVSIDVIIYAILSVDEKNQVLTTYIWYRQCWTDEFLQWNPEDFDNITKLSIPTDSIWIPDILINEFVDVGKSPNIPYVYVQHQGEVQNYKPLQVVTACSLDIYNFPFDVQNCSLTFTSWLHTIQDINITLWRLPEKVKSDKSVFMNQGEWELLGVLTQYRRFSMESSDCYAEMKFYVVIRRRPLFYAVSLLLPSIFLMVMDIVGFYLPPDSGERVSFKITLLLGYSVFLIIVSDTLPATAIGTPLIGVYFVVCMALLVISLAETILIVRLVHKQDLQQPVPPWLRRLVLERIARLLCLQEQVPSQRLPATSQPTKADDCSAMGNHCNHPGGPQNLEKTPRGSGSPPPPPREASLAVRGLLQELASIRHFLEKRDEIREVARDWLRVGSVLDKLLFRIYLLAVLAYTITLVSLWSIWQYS
Protocol: The activity of the compounds against 5-HT can be assessed by determining their pA2 values in the isolated rabbit heart as described by Fozard et at Europ. J. Pharmacol. 59, 195-210 (1979). In the method described the molar concentration of antagonist which reduces the effects of twice the ED50 of 5-HT to that of the ED50 in the absence of antagonist is determined. The pA2 value is the negative logarithm of said molar concentrations.

5-HT M-receptor [2] = biological target: T1, 5-HT M-receptor; conditions: potency as 5-HT M-receptor antagonist; values reported by Fozard et al, Eur. J. Pharmacol. 59(1979) and 49(1978); cited from earlier work
[3] = potency as 5-HT M-receptor antagonist, tests mentioned in the background section, read-out: pA2 (converted)

Structure (SMILES) | pA2 (5-HT M-receptor [2]) | Kb (5-HT M-receptor [1]; [3]) | further results
CN1[C@@H]2CC[C@H]1C[C@H](OC(=O)c1cc(Cl)cc(Cl)c1)C2 [Example 1, Pseudotropyl 3,5-Dichlorobenzoate (i.e. 3,5-Dichlorobenzoic Acid Exo-8-Methyl-8-Azabicyclo[3,2,1]Oct-3-Yl Ester)] | – | – | Kb (5-HT M-receptor [1]; isolated rabbit heart, antagonism of 5-HT, read-out: pA2 (5-HT) (converted)): 2.51 nM
CN1[C@@H]2CC[C@H]1C[C@@H](OC(=O)c1ccccc1)C2 [benzoyltropine] | 7.2 | – | –
CN1[C@@H]2CC[C@H]1C[C@H](OC(=O)c1ccccc1)C2 [pseudotropyl benzoate] | 7.0 | – | –
COc1cc(C(=O)O[C@@H]2C[C@H]3CC[C@@H](C2)N3C)cc(OC)c1OC [pseudotropyl-3,4,5-trimethoxybenzoate] | – | 2000 nM | –
COc1cc(OC)cc(C(=O)O[C@@H]2C[C@H]3CC[C@@H](C2)N3C)c1 [pseudotropyl-3,5-dimethoxybenzoate] | – | 251 nM | –
